From article PMC11161644, “An effective and rapidly degradable disinfectant from disinfection byproducts” (Nature Communications, 2024)
Values joined by “and” are separate entries in the source; they are usually repeats but may differ in a detail not shown here. Equal entries are not always repeated.

Tests used:
freshwater fish = system: freshwater fish; set-up: method as in earlier work; settings: USEPA; cited from earlier work
[1] = UPLC/ESI-tqMS time profile of 2,6-DCQ and its degradation products in simulated seawater (pH 8.2, darkness); OH-DCQ formation; settings: for Concentration: 2,6-DCQ degradation / OH-DCQ formation; for Peak area: 2,6-DCQ degradation, pH 8.2, darkness
Procedure: A Waters UPLC system coupled with ESI-tqMS was used to characterize the degradation products of 2,6-DCQ. The UPLC separation was performed using an HSS T3 column (100 × 2.1 mm, 1.8 μm particle size, Waters) with a column temperature of 35 °C. A gradient eluent of methanol–water was applied at a flow rate of 0.4 mL min^−1. The gradient program was set as follows: methanol/water (v/v) ratio changed linearly from 5/95 to 90/10 in the first 8 min and then returned to 5/95 during 8.0‒8.1 min, which was held for 2.9 min for re-equilibration. The ESI-tqMS was set as follows: ESI negative mode, capillary voltage 2.8 kV, cone voltage 10–50 V (depending on analytes), cone gas flow 50 L h^−1, source temperature 120 °C, desolvation temperature 400 °C, desolvation gas flow 800 L h^−1, collision energy 15–50 eV (depending on analytes), collision gas (argon) flow 0.25 mL min^−1, and mass resolution 15 (1-unit resolution).
The degradation of 2,6-DCQ in seawater was simulated by adding 10 mg L^−1 2,6-DCQ to 50 mL ultrapure water, which was adjusted to pH 8.2 with 5 mM sodium carbonate (to simulate the alkalinity in seawater and also to be compatible with the subsequent UPLC/ESI-tqMS analysis). The sample was kept in darkness for 0–24 h, during which the pH of the sample was maintained at 8.1 ± 0.1. At a designated reaction time, 7.5 μL of the sample was injected into the UPLC system. For a nonhalogenated degradation product, the selected ion recording (SIR) mode with a dwell time of 0.05 s was adopted to obtain the retention time. For halogenated degradation products, the multiple reaction monitoring mode with a dwell time of 0.05 s was used to obtain the retention time and the isotopic abundance ratio. To investigate the time-dependent profile of 2,6-DCQ and its degradation products, the peak area of each compound was determined using the SIR mode in the UPLC/ESI-tqMS analysis.
The second aliquot was subjected to analysis of total organic halogen to quantify the collected OH-DCQ. The determination of total organic halogen was based on Standard Method 5320B[52], with modifications of using off-line ion chromatography for halide detection. Briefly, the aliquot was dissolved in 100 mL ultrapure water and acidified to pH 2 with concentrated nitric acid[52] prior to adsorption onto pre-packed activated carbon columns (Mitsubishi). A three-channel adsorption module (TXA03C, Mitsubishi Chemical Analytech) was used for adsorption. An AQF-100 automatic quick furnace (Mitsubishi Chemical Analytech) was used for pyrolysis. During the pyrolysis process, the chlorine atoms in OH-DCQ were converted to chloride. The chloride ion concentration was determined using an ICS-3000 ion chromatography system (Dionex). 2,6-DCQ was used as a standard compound for measuring total organic halogen to determine the recovery of the analysis. The total organic halogen analysis was conducted in duplicate.

[2] = Degradation of 2,6-DCQ in phosphate-buffered ultrapure water (pH 8.2) in darkness; type: physicochemical
Procedure: For the stability of 2,6-DCQ in aquatic environments, we used seawater because seawater
investigate the effect of chloride ions on the stability of 2,6-DCQ, we have conducted the
degradation experiments of 2,6-DCQ in seawater (pH 8.2) and ultrapure water (added with 4 mM
phosphate buffer at pH 8.2) in darkness.
Lines 185–188 in the revision-marked manuscript, “We also investigated the effect of the high
chloride level in seawater on the degradation of 2,6-DCQ in darkness.

[3] = Real-time stability testing of 2,6-DCQ (solid form, 2-propanol solution); type: physicochemical; settings: for Time remaining stable: room temperature
Procedure: According to the U.S. Food and Drug Administration guidance, 2,6-DCQ in solid form or solution form (using 2-propanol as the solvent, a common ingredient in antiseptic liquids and hand sanitizers) was kept at room temperature (22 ± 1 °C) and 65 ± 5% of relative humidity for stability testing. The concentrations of 2,6-DCQ at different storage times were determined by an Agilent HPLC equipped with a UV detector at 280 nm. A disinfectant product is considered stable for a certain storage time if its concentration remains ≥90% of the initial concentration.

E. coli = assay: Fluorescence microscopic analysis of propidium iodide-stained E. coli (membrane integrity); type: cell-based, Escherichia coli; settings: with increasing 2,6-DCQ dose
Procedure: The E. coli cells in the control and disinfected samples were pelleted by centrifugation at 8000×g (5 min, 4 °C) and resuspended in 200 μL PBS (0.1 M, pH 7.2). Propidium iodide[54] was added to the cell suspension at a concentration of 75 μM. After propidium iodide staining in darkness for 30 min, the samples were washed twice with PBS and mounted on glass slides. The samples were then examined using a fluorescence microscope (Eclipse Ti, Nikon, Japan). The fluorescence intensity was semi-quantified with ImageJ software (National Institutes of Health, Bethesda, MD).

Question: Which “Toxicity rating to freshwater fish” value (freshwater fish) does the source give for `Cc1cc(O)cc(C)c1Cl` [PCMX, para-chloro-meta-xylenol, reference compound] here?
Answer: The value was “highly toxic”.

Question: With `O=C1C=C(Cl)C(=O)C(Cl)=C1` [2,6-DCQ, 2,6-dichlorobenzoquinone] as the molecule, how does the Concentration ([1]; degradation time 0 h) read?
Answer: The Concentration was 10 µg/mL.

Question: And the Concentration ([1]; degradation time 0.25 h)?
Answer: Its Concentration is 9.325 µg/mL.

Question: And the Concentration ([1]; degradation time 0.5 h)?
Answer: The Concentration was 7.7507 µg/mL.

Question: What about the Concentration ([1]; degradation time 0.75 h) of the same molecule?
Answer: Its Concentration is 7.678 µg/mL.

Question: And the Concentration ([1]; degradation time 1 h)?
Answer: The Concentration was 6.527 µg/mL.

Question: What about the Concentration ([1]; degradation time 1.25 h) of the same molecule?
Answer: The Concentration was 5.831 µg/mL.

Question: And the Concentration ([1]; degradation time 1.5 h)?
Answer: Its Concentration is 4.783 µg/mL.

Question: What about the Concentration ([1]; degradation time 1.75 h) of the same molecule?
Answer: Its Concentration is 4.325 µg/mL.

Question: What about the Concentration ([1]; degradation time 2 h) of the same molecule?
Answer: The Concentration was 3.926 µg/mL.

Question: And the Concentration ([1]; degradation time 2.25 h)?
Answer: The Concentration was 3.481 µg/mL.

Question: And the Concentration ([1]; degradation time 2.5 h)?
Answer: The Concentration was 3.0344 µg/mL.

Question: What about the Concentration ([1]; degradation time 2.75 h) of the same molecule?
Answer: The Concentration was 2.761 µg/mL.

Question: What about the Concentration ([1]; degradation time 3 h) of the same molecule?
Answer: The Concentration was 2.333 µg/mL.

Question: And the Concentration ([1]; degradation time 3.25 h)?
Answer: The Concentration was 2.12 µg/mL.

Question: What about the Concentration ([1]; degradation time 3.5 h) of the same molecule?
Answer: The Concentration was 1.754 µg/mL.

Question: What about the Concentration ([1]; degradation time 3.75 h) of the same molecule?
Answer: Its Concentration is 1.608 µg/mL.

Question: What about the Concentration ([1]; degradation time 4 h) of the same molecule?
Answer: Its Concentration is 1.408 µg/mL.

Question: And the Concentration ([1]; degradation time 4.5 h)?
Answer: The Concentration was 0.9867 µg/mL.

Question: And the Concentration ([1]; degradation time 5 h)?
Answer: Its Concentration is 0.7051 µg/mL.

Question: And the Concentration ([1]; degradation time 5.5 h)?
Answer: Its Concentration is 0.5833 µg/mL.

Question: What about the Concentration ([1]; degradation time 6 h) of the same molecule?
Answer: Its Concentration is 0.424 µg/mL.

Question: And the Concentration ([1]; degradation time 6.5 h)?
Answer: Its Concentration is 0.2875 µg/mL.

Question: What about the Concentration ([1]; degradation time 7 h) of the same molecule?
Answer: The Concentration was 0.2316 µg/mL.

Question: What about the Concentration ([1]; degradation time 7.5 h) of the same molecule?
Answer: Its Concentration is 0.1796 µg/mL.

Question: And the Concentration ([1]; degradation time 8 h)?
Answer: Its Concentration is 0.1533 µg/mL.

Question: What about the Concentration ([1]; degradation time 10 h) of the same molecule?
Answer: Its Concentration is 0.05498 µg/mL.

Question: And the Concentration ([1]; degradation time 12 h)?
Answer: Its Concentration is 0.02477 µg/mL.

Question: What about the Concentration ([1]; degradation time 14 h) of the same molecule?
Answer: The Concentration was 0.01436 µg/mL.

Question: What about the Concentration ([1]; degradation time 16 h) of the same molecule?
Answer: Its Concentration is 0 µg/mL.

Question: What about the Concentration ([1]; degradation time 18 h) of the same molecule?
Answer: The Concentration was 0 µg/mL.

Question: And the Concentration ([1]; degradation time 20 h)?
Answer: The Concentration was 0 µg/mL.

Question: What about the Concentration ([1]; degradation time 24 h) of the same molecule?
Answer: The Concentration was 0 µg/mL.

Question: What about the Peak area ([1]; 0 h) of the same molecule?
Answer: The Peak area was 56527.8.

Question: And the Peak area ([1]; 0.25 h)?
Answer: The Peak area was 52714.2.

Question: And the Peak area ([1]; 0.5 h)?
Answer: Its Peak area is 43813.

Question: And the Peak area ([1]; 0.75 h)?
Answer: The Peak area was 43401.4.

Question: And the Peak area ([1]; 1 h)?
Answer: Its Peak area is 36894.2.

Question: And the Peak area ([1]; 1.25 h)?
Answer: Its Peak area is 32960.2.

Question: And the Peak area ([1]; 1.5 h)?
Answer: The Peak area was 27035.4.

Question: And the Peak area ([1]; 1.75 h)?
Answer: Its Peak area is 24446.8.

Question: What about the Peak area ([1]; 2 h) of the same molecule?
Answer: The Peak area was 22195.6.

Question: And the Peak area ([1]; 2.25 h)?
Answer: The Peak area was 19679.8.

Question: What about the Peak area ([1]; 2.5 h) of the same molecule?
Answer: Its Peak area is 17152.8.

Question: What about the Peak area ([1]; 2.75 h) of the same molecule?
Answer: The Peak area was 15608.6.

Question: What about the Peak area ([1]; 3 h) of the same molecule?
Answer: The Peak area was 13185.2.

Question: And the Peak area ([1]; 3.25 h)?
Answer: The Peak area was 11984.

Question: What about the Peak area ([1]; 3.5 h) of the same molecule?
Answer: Its Peak area is 9914.8.

Question: What about the Peak area ([1]; 3.75 h) of the same molecule?
Answer: The Peak area was 9088.8.

Question: And the Peak area ([1]; 4 h)?
Answer: The Peak area was 7959.

Question: And the Peak area ([1]; 4.5 h)?
Answer: Its Peak area is 5577.6.

Question: What about the Peak area ([1]; 5 h) of the same molecule?
Answer: Its Peak area is 3985.8.

Question: And the Peak area ([1]; 5.5 h)?
Answer: Its Peak area is 3297.

Question: And the Peak area ([1]; 6 h)?
Answer: Its Peak area is 2396.8.

Question: And the Peak area ([1]; 6.5 h)?
Answer: Its Peak area is 1625.4.

Question: And the Peak area ([1]; 7 h)?
Answer: The Peak area was 1309.

Question: What about the Peak area ([1]; 7.5 h) of the same molecule?
Answer: Its Peak area is 1015.

Question: What about the Peak area ([1]; 8 h) of the same molecule?
Answer: Its Peak area is 866.6.

Question: What about the Peak area ([1]; 10 h) of the same molecule?
Answer: Its Peak area is 310.8.

Question: And the Peak area ([1]; 12 h)?
Answer: The Peak area was 140.

Question: And the Peak area ([1]; 14 h)?
Answer: The Peak area was 81.2.

Question: What about the Peak area ([1]; 16 h) of the same molecule?
Answer: The Peak area was 0.

Question: What about the Peak area ([1]; 18 h) of the same molecule?
Answer: The Peak area was 0.

Question: And the Peak area ([1]; 20 h)?
Answer: Its Peak area is 0.

Question: What about the Peak area ([1]; 24 h) of the same molecule?
Answer: Its Peak area is 0.

Question: What about the “Ln (C/C0)” value ([2]; pH 8.2 in phosphate-buffered water, darkness, 0 h) of the same molecule?
Answer: The value was 0.

Question: What about the “Effect of chloride ions on degradation” value ([2]; seawater vs phosphate-buffered water, pH 8.2, darkness) of the same molecule?
Answer: Its value is “no discernible effect”.

Question: What about the Time remaining stable ([3]; in 2-propanol) of the same molecule?
Answer: Its Time remaining stable is “over 7 months”.

Question: And the Time remaining stable ([3]; solid form)?
Answer: Its Time remaining stable is “over 36 months”.

Question: And the C/C0 ([3]; solid form, storage time 0 month)?
Answer: Its C/C0 is 1.

Question: And the C/C0 ([3]; solid form, storage time 16 month)?
Answer: The C/C0 was 1.072 and 1.01.

Question: And the C/C0 ([3]; solid form, storage time 36 month)?
Answer: Its C/C0 is 1.029 and 1.0188.

Question: And the C/C0 ([3]; solution form (2-propanol), storage time 0 month)?
Answer: Its C/C0 is 1.

Question: What about the C/C0 ([3]; solution form (2-propanol), storage time 2.5 month) of the same molecule?
Answer: Its C/C0 is 0.9898.

Question: What about the C/C0 ([3]; solution form (2-propanol), storage time 7 month) of the same molecule?
Answer: The C/C0 was 0.9151.

Question: And the C/C0 ([3]; solution form (2-propanol), storage time 10 month)?
Answer: Its C/C0 is 0.8855.

Question: And the C/C0 ([3]; solution form (2-propanol), storage time 12.5 month)?
Answer: The C/C0 was 0.8301.

Question: What about the “Propidium iodide fluorescence intensity relative to control sample” value (E. coli) of the same molecule?
Answer: Its value is 3.5–59.2 times.
